Patent US20200330447A1, “CANCER TREATMENT VIA REPOSITIONED TRICYCLIC ANTI-DEPRESSANT-LIKE DRUGS AS ANTI-CANCER AGENTS AND NEW COMBINATIONS OF SUCH DRUGS” (Board of Supervisors of Louisiana State University and …, priority 2015, published 2020)
Where a name gives a salt, the structure may show the parent alone.

tested on: Erk signaling pathway; test: Lysosome inward movement in the presence of the MAPK inhibitor U0126, and Erk western blot; type: cell-based; conditions: deptropine and pizotifen 5 μM, 4 hours, A172 cells
Protocol: Turning to FIG. 8, deptropine and pizotifen are shown to act through the Erk signaling pathway. In this experiment, A172 cells were treated with deptropine and pizotifen at 5 μM concentrations for 4 hours in the presence of the MAPK inhibitor U0126. I.F. microscopy was then performed. This helped allow the determination of the mechanism of action of deptropine and pizotifen.

**Q.** How did the “effect of U0126 on inward movement of lysosomes induced by deptropine and pizotifen” value turn out when `N#CC(=C(/N)Sc1ccccc1N)/C(C#N)=C(\N)Sc1ccccc1N` [U0126] was run?
**A.** prevents the action of deptropine and pizotifen

tested on: A172 glioblastoma cells; test: Acidic media pH induced lysosome distribution, LAMP-1 IF imaging; type: cell-based; conditions: EIPA, low pHe media
Protocol: A172 glioblastoma cells were treated overnight with 5 or 10 μM deptropine or pizotifen or with the deptropine or pizotifen in combination at 5 μM concentration. The next day, media was change to low pHe media containing deptropine or pizotifen and the cells were incubated for an additional 2 h. EIPA is a known inhibitor of lysosomal outward movement and represents the positive control. At the end of the incubation time, cells were fixed and stained for LAMP-1, filamentous actin and nuclei. Representative merged IF images depicting the effect of pHe 7.4, pHe 6.4, DMSO or deptropine and pizotifen on the distribution of lysosomes in A172 glioblastoma cells. On color versions of the Figure, red puncta are lysosomes, blue is nuclei and green is actin. As could be seen, lysosomes appear more peripherally distributed in A172 glioma cells than in cells treated with concentrations of 5 to 10 micromolar deptropine or pizotifen.
Cells were treated as described above with FIG. 2 but included a concentration of 0.1 micromolar and 1 micromolar deptropine and pizotifen.
Turning to FIG. 7, an additional aspect of this technology is how quickly deptropine and pizotifen act to move lysosomes towards the nucleus. […] A172 glioblastoma cells were treated with the 5 or 10 μM deptropine or pizofifen for 2 h and then with low pHe media containing the drugs for an additional 2 hours. At the end of incubation time, cells were fixed and stained for LAMP-1, filamentous actin, and nuclei. Representative merged IF images depicting the effect of DMSO, 5 and 10 μM deptropine or pizotifen upon 4 hours on the distribution of lysosomes, colored red in color images, in A172 glioblastoma cells. Also shown in color images are actin, colored green, and nuclei, colored blue.

**Q.** How did the “acidic media induced lysosome redistribution, positive control” value turn out when `CCN(c1nc(N)c(C(=O)NC(=N)N)nc1Cl)C(C)C` [EIPA] was run?
**A.** prevented lysosome redistribution and induced clustering of lysosomes around the nucleus

tested on: DU145 prostate cancer cells; test: High content imaging-based screen (Cellomics) for lysosome migration inhibitors; type: cell-based; conditions: EIPA 25 uM, 16 hours
Protocol: DEVELOPMENT OF A HIGH CONTENT IMAGING-BASED SCREEN: The followings process was followed to identify chemicals that were lysosome migration inhibitors. DU145 prostate cancer cells were seeded in 96 well flat bottom black walled plates at 4,500 cells per well. All compounds and controls were exposed to RPMI bicarbonate buffered media (pH 6.4). RPMI buffered media titrated at pH of 6.4-6.8 was added to column 12 after the media was removed and serves as negative control (low acidic pH so lysosomes move out). […] The 4 compound libraries chosen to screen were the NIH Clinical Collection (450 drugs), Prestwick (1200 drugs), Prestwick phytochemical and the Green Pharma collection (xx drugs). Compounds were diluted with buffered RPMI media to 2 micrograms per ml concentrations. Individual compounds to be screened were added robotically as a single compound per well through columns 2-11. Plates were incubated at 37 degrees in 5% CO2 for 16 hours then the medium was removed and the cells were fixed with 4% cold paraformaldehyde (Sigma-Aldrich) for 20 minutes at 4 degrees. Fixed cells were washed once with PBS. To stain lysosomes, cells were incubated for 1 hour with LAMP1 antibody (H4A3) diluted in BSP (containing 0.25% BSA and 0.1% saponin in PBS) at 1/200. Cells were then washed with PBS 3 times then incubated for 1 hour with Dylight Donkey anti-mouse diluted at 1/200 in BSP. To stain the nucleus, cells were then washed with PBS 3 times and incubated for 20 minutes with 1×DAPI diluted in PBS. DAPI was washed off with PBS and cells were maintained in PBS for the duration of the screening process. Plates were mounted and read in a Cellomics Arrayscan automated fluorescence imager. The Cellomics platform allows for high content throughput screening by combining fluorescence microscopy with a multi-parameter image analysis. Cells were photographed using 20× objective in 2 fluorescent channels. A total of 15 different fields in each well, and at least 300 cells were imaged per well. The biocompartmental analysis algorithm was used to identify each cell by its nucleus (channel 1 recognized by the DAPI stain) and to generate a cytoplasmic mask (ring) of 12 pixels width in which the inner ring was 6 pixels away from the nucleus. The algorithm calculates the number of lysosomes inside the ring as indicated by fluorescent LAMP-1 positive puncta in channel 2 as a mean ring spot count. Therefore, when lysosomes move away from the nucleus and disperse throughout the cytoplasm, the number of spots representing lysosomes inside the cytoplasmic ring increases (low pH conditions). By contrast, lysosomes cluster near the nucleus the numbers of spot inside the cytoplasmic ring decreases (EIPA treated).
Z′-factor is a simple statistical coefficient used to assess performance and quality of the assay in high-throughput screening. It is calculated with the formula: Z′=1-(3σct+3σcb)/|μct−μcb|, where p indicates mean, a represents standard deviation, “ct” indicates the positive control, “cb” indicates the negative control. […] If the Z′ is more than 0.5, the assay is considered to be high quality assay.
The Z′ factor of the assay was determined from the EIPA (positive control) and low pH (negative control). Experiments were run in duplicate. Only plates with positive Z′ factor was used for analysis.

**Q.** With `CCN(c1nc(N)c(C(=O)NC(=N)N)nc1Cl)C(C)C` [EIPA] as the compound, how does the “lysosome position, positive control” value read?
**A.** lysosomes near the nucleus

same assay, conditions: pH 6.4 media, 2 micrograms per ml, 16 hours

**Q.** Which “hit in screen for lysosome migration inhibitors (mean ring spot count)” value does the source give for `CCCSc1ccc2nc(NC(=O)OC)[nH]c2c1` [albendazole] here?
**A.** hits

**Q.** Which “hit in screen for lysosome migration inhibitors (mean ring spot count)” value does the source give for `COc1cc2c(c(OC)c1OC)-c1ccc(OC)c(=O)cc1[C@@H](NC(C)=O)CC2` [colchicine] here?
**A.** hits

**Q.** `CC(C)[C@@]1(NC(=O)[C@@H]2C[C@@H]3c4cccc5[nH]cc(c45)C[C@H]3N(C)C2)O[C@@]2(O)[C@@H]3CCCN3C(=O)[C@H](Cc3ccccc3)N2C1=O` [dihydroergocristine mesylate, (5′α,10α)-9,10-Dihydro-12′-hydroxy-2′-(1-methylethyl)-5′-(phenylmethyl)-ergotaman-3′, 6′, 18-trione mesylate] was tested. Which “hit in screen for lysosome migration inhibitors (mean ring spot count)” value did it give?
**A.** hits

**Q.** For `COC(=O)Nc1nc2ccc(Sc3ccccc3)cc2[nH]1` [fenbendazole], which “hit in screen for lysosome migration inhibitors (mean ring spot count)” value is on record?
**A.** hits

**Q.** For `COc1ccc2c(c1)[nH]c1c(C)nccc12` [harmine], which “hit in screen for lysosome migration inhibitors (mean ring spot count)” value is on record?
**A.** hit

**Q.** With `COC(=O)Nc1nc2ccc(C(=O)c3ccccc3)cc2[nH]1` [mebendazole] as the compound, how does the “hit in screen for lysosome migration inhibitors (mean ring spot count)” value read?
**A.** hits

**Q.** `OC(c1cc(C(F)(F)F)nc2c(C(F)(F)F)cccc12)C1CCCCN1` (stereo not drawn) [mefloquine, [(R*,S*)-2,8-bis(trifluoromethyl)quinolin-4-yl]-(2-piperidyl)methanol] was tested. Which “hit in screen for lysosome migration inhibitors (mean ring spot count)” value did it give?
**A.** hit

**Q.** For `O=C(Nc1ccc([N+](=O)[O-])cc1Cl)c1cc(Cl)ccc1O` [niclosamide], which “hit in screen for lysosome migration inhibitors (mean ring spot count)” value is on record?
**A.** hits

**Q.** With `CC(=O)O[C@H]1C(=O)[C@@]2(C)[C@H]([C@H](OC(=O)c3ccccc3)[C@]3(O)C[C@H](OC(=O)[C@H](O)[C@@H](NC(=O)c4ccccc4)c4ccccc4)C(C)=C1C3(C)C)[C@]1(OC(C)=O)CO[C@@H]1C[C@@H]2O` [paclitaxel] as the compound, how does the “hit in screen for lysosome migration inhibitors (mean ring spot count)” value read?
**A.** hits

**Q.** Which “hit in screen for lysosome migration inhibitors (mean ring spot count)” value does the source give for `COc1cc([C@@H]2c3cc4c(cc3[C@H](O)[C@H]3COC(=O)[C@H]23)OCO4)cc(OC)c1OC` [podophyllotoxin] here?
**A.** hits

**Q.** With `O=C(c1ccc(OCCN2CCCCC2)cc1)c1c(-c2ccc(O)cc2)sc2cc(O)ccc12` [raloxifene] as the compound, how does the “hit in screen for lysosome migration inhibitors (mean ring spot count)” value read?
**A.** hits

**Q.** For `CC[C@]1(O)C[C@H]2CN(CCc3c([nH]c4ccccc34)[C@@](C(=O)OC)(c3cc4c(cc3OC)N(C=O)[C@H]3[C@@](O)(C(=O)OC)[C@H](OC(C)=O)[C@]5(CC)C=CCN6CC[C@]43[C@@H]65)C2)C1` [vincristine], which “hit in screen for lysosome migration inhibitors (mean ring spot count)” value is on record?
**A.** hits

**Q.** How did the “hit in screen for lysosome migration inhibitors (mean ring spot count)” value turn out when `CC[C@]1(O)C[C@@H]2CN(CCc3c([nH]c4ccccc34)[C@@](C(=O)OC)(c3cc4c(cc3OC)N(C)[C@H]3[C@@](O)(C(N)=O)[C@H](O)[C@]5(CC)C=CCN6CC[C@]43[C@@H]65)C2)C1` [vindesine] was run?
**A.** hits

**Q.** How did the “hit in screen for lysosome migration inhibitors (mean ring spot count)” value turn out when `CCC1=C[C@@H]2CN(C1)Cc1c([nH]c3ccccc13)[C@@](C(=O)OC)(c1cc3c(cc1OC)N(C)[C@H]1[C@@](O)(C(=O)OC)[C@H](OC(C)=O)[C@]4(CC)C=CCN5CC[C@]31[C@@H]54)C2` [vinorelbine] was run?
**A.** hits

**Q.** Which “hit in screen for lysosome migration inhibitors (mean ring spot count)” value does the source give for dihydroergotoxine mesylate here?
**A.** hits
